Test results taken from patent US8552067B2, “Macromolecular conjugates of cystic fibrosis transmembrane conductance regulator protein inhibitors and uses therefor” (The Regents of the University of California, priority 2006, dated 2013).
Counter-ions that a name gives are not always drawn.

Columns and labels:
[1] = biological target: T1, wildtype CFTR (Homo sapiens, UniProt P13569); assay: Whole-cell patch-clamp on FRT cells stably expressing wildtype CFTR; conditions: after stepping membrane potential to +80 mV; MalH-ConA 250 nM, GlyH-101 5 μM
[2] = biological target: T2, CFTR (Homo sapiens, UniProt P13569); assay: Reversibility of CFTR chloride current inhibition after washout; assay type: cell-based; conditions: after 95-100% inhibition; MalH-ConA over six hours
T2 construct: expressed in transfected cells; host or cells: Fischer rat thyroid (FRT) cells
Description: Chloride current increased slowly with incubation time, with 50% ‘reversal’ at approximately 8 h.

[3] = Water solubility (statement); assay type: physicochemical
[4] = biological target: T1, wildtype CFTR; assay: Apical membrane chloride current (short-circuit current) in FRT epithelial cells expressing human wildtype CFTR

T1 sequence (P13569 whole entry): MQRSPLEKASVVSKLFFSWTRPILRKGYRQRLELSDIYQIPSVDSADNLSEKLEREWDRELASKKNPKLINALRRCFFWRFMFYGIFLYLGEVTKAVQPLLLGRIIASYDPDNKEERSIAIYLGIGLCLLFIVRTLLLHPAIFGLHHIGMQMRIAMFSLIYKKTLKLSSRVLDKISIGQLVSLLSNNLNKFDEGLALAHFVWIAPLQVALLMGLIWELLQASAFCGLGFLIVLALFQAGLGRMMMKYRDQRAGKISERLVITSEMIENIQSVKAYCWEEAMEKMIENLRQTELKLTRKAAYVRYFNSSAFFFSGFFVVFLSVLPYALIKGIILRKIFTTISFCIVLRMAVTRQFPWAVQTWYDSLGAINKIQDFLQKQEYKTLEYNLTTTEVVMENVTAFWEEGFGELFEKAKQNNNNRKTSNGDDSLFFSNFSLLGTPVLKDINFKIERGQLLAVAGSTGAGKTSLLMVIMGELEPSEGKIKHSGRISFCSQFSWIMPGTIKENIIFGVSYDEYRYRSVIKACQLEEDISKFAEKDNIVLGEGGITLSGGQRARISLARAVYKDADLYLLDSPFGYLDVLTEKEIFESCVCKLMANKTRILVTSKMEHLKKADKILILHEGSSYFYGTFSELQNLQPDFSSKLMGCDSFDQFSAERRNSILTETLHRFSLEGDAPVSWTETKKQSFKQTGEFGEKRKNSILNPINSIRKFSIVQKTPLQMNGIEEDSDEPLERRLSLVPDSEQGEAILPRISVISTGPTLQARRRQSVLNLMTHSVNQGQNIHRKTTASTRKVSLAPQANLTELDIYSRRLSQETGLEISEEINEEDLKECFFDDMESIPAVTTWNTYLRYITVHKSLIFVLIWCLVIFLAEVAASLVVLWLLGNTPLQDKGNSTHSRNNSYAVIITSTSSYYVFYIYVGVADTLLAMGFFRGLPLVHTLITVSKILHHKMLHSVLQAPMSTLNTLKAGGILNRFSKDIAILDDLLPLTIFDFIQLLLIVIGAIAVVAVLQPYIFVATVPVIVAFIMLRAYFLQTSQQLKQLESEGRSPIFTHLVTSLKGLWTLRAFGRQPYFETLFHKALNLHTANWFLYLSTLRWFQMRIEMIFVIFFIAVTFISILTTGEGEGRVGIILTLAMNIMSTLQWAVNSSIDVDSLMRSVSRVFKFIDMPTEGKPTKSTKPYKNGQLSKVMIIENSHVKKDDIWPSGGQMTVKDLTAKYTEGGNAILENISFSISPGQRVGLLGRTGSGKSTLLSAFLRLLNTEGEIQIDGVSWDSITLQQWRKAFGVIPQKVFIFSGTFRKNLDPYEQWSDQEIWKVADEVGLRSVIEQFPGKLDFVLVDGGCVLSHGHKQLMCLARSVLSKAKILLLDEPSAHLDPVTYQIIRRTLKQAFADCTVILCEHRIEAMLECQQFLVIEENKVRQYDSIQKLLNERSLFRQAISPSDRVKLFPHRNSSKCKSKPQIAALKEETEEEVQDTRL
T2 sequence (P13569 whole entry): as above

| Structure (SMILES) | time constant of current decay (single exponential) [1] [ms] | reversal of CFTR inhibition after washout and forskolin re-addition [2] | water solubility [3] | IC50 [4] [nM] | effect of mannose on CFTR inhibitory potency ([4]; 200 mM mannose) | effect of heat denaturation on CFTR inhibition activity ([4]; 100° C. for 5 min) | effect of EDTA on CFTR inhibition potency ([4]; EDTA in buffer (chelation of Ca2+ and Mg2+)) | effect of excess unconjugated ConA on CFTR inhibition potency ([4]; excess ConA (5 μM) added before compound) | effect of acid incubation on capability to inhibit CFTR ([4]; incubation at either pH 1.5 or pH 5.2) | CFTR inhibition after pronase treatment ([4]; pronase 8 hours, pH 8, 37° C.) |
| --- | --- | --- | --- | --- | --- | --- | --- | --- | --- | --- |
| O=C(CNc1ccc2ccccc2c1)NN=Cc1cc(Br)c(O)c(Br)c1O [GlyH-101, N^2-naphthalenyl-[3,5-[dibromo-2,4-dihydroxyphenyl)methylene]glycine hydrazide] | 8 to 10 | – | – | – | – | – | – | – | – | – |
| O=C(NN=Cc1cc(Br)c(O)c(Br)c1)C(Nc1ccc2ccccc2c1)C(=O)NNC(=S)Nc1ccc(C=Cc2ccc(N=C=S)cc2S(=O)(=O)O)c(S(=O)(=O)O)c1 (stereo not shown) [MalH-DIDS, 2-naphthalenylamino-[(3,5-dibromo-4-dihydroxyphenyl)methylene]hydrazide [[[4-[2-(4-isothiocyanato-2-sulfophenypethenyl]-2-sulfophenyl]amino]thioxomethyl]hydrazide-propanedioic acid, disodium salt] | – | Near-complete and rapid reversal | highly water soluble | 1000 | did not affect | did not affect | did not affect | did not affect | did not affect | not affected |
